Patent publication US11607422B2, “Uttroside B and derivatives thereof as therapeutics for hepatocellular carcinoma” (Rajiv Gandhi Centre for Biotechnology, an Autonomous …, priority 2016, dated 2023)

Assays:
[1] = tested on: mTOR pathway in HepG2 cells; experiment: Western blot of mTOR and downstream target phosphorylation; assay type: cell-based, human
Procedure: FIGS. 4A-4E are images showing Uttroside B inhibits MAPK and mTOR signaling, some of the crucial survival signals in liver cancer. […] HepG2 cells were treated with Uttroside B for different time intervals (0-240 min) and the whole cell lysate was resolved on a 10% gel and immunoblotted against phospho-ERK1/2 and phospho-Akt antibodies. Taxol was used as a positive control. […] HepG2 cells were treated with Uttroside B at different time intervals and the whole cell lysate was resolved on an 8% gel and immunoblotted against phospho-mTOR (2448) and phospho-mTOR (2481) antibodies.
Western blot analysis. Approximately 0.5×10^6 cells were grown on 60 mm culture plates and exposed to drugs as indicated for the desired time. The cells were then scraped out, washed in ice cold 1× PBS and pelleted down at 13000 rpm for 2 min. […]
Uttroside B inhibits mTOR signaling, a crucial survival signal in liver cancer. […] Concomitantly, the phosphorylation of p70S6 kinase and 4E-BP-1, two m-TOR substrates whose phosphorylation can be considered as the read out of m-TOR activity, was found reduced in response to Uttroside B-treatment. […]

HepG2 xenograft tumors = experiment: HepG2-xenograft model in NOD-SCID mice; assay type: in vivo
Procedure: Our next attempt was to validate the anticancer potential of Uttroside B against hepatic cancer, using an in vivo HepG2-xenograft model in NOD-SCID mice. The HepG2 cells suspended in matrigel were subcutaneously injected in the flank region of the mice. The study has been schematically represented in FIG. 6A. Uttroside B, dissolved in PBS, was administered after 15 days of tumor cell implantation when the tumor attained a size of 50-100 mm^3 approximately. Uttroside B (10 mg/kg bw) was injected intraperitoneally, thrice weekly for four weeks. […] The size of the tumor was measured using Vernier calipers every week and the corresponding tumor volume was calculated. […] However, upon sacrifice, very small tumors were observed beneath the skin of animals treated with Uttroside B too, though the size was drastically less compared to that of control animals [FIG. 6B-6C]. […] Although this study was in a mouse the skilled artisan knows that that dose may be converted to human equivalent dosage by simple math. For example the 10 mg/kg body weight for a mouse would convert to a 0.8 mg/kg body weight for a human and result in a range from 0.05 to 1.2 mg/kg body weight.
In vivoHepG2-Xenograft model: All animal studies were performed in accordance with the protocols approved by Institute Animal Ethical Committee IAEC No: 151(b)/RUBY/2012. An ectopic xenograft model in NOD-SCID (NOD.CB17-Prkdcscid/J) mice was used for evaluating the anti-cancer properties of Uttroside B. The animals required for this study were obtained from Animal Research Facility of Rajiv Gandhi Centre for Biotechnology and were fed with standard food pellets and autoclaved water ad libitum. Animal handling, tumor induction, drug treatment and tissue collection were performed in sterile conditions.
Evaluation of the anticancer activity of Uttroside B, isolated from S. nigrum in human liver cancer (HepG2)-xenograft model: xenografts models were established in NOD-SCID mice as described in literature.^10 Male NOD-SCID (NOD.CB17-Prkdc^scid/J) mice of age 6-8 weeks were used for the study. Tumors were induced by subcutaneous injection of HepG2 cells (7×10^6 cells in 100 μL matrigel) in the lower right or left flank of mice and were allowed to grow for a period of two weeks to attain a size of approximately 50-100 mm^3 as measured by Vernier calipers. The mice were then randomly grouped into control and treatment group of 9 animals each. The treatment groups were injected intraperitoneally with Uttroside B (10 mg/kg doses thrice weekly) for one month. Tumor volume was measured every seven days to evaluate tumor growth and drug response. The animals were sacrificed at the end of the study and tumor samples were collected for histopathological and immunohistochemical analysis.
Histopathology: The tissue cryo-sections were washed with PBS (5 min, 2 times) and distilled water for 5 min. Then the sections were stained with hematoxylin for 2 min. Excess stain was washed off and the slides were dipped in differentiation solution for 1-2 s. They were then kept in tap water for 10 min and 70% Isopropyl alcohol for 5 min respectively and were counter stained with eosin solution for 1 min. The sections were then transferred to 100% Isopropyl alcohol and kept for 2 min, cleared in xylene for 1 h and were mounted using DPX. Stained sections were observed using a light microscope and were photographed. The pathology of liver and tumor tissue sections were examined and verified by Dr. Sankar Sundaram, Professor of Pathology, Medical College, Thiruvananthapuram.
Immunohistochemistry of xenograft tissue sections: Immunohistochemical analysis of various proteins in the xenograft tumor tissue sections was performed using the detection kit, as per manufacturer's protocol Super Sensitive™ Polymer-HRP IHC Detection System (Biogenex, Calif., USA). Paraformaldehyde-fixed OCT-embedded tissue sections were kept in PBS for 15 min. […]

[2] = 10 mg/kg bw i.p. thrice weekly, four weeks

C[C@H](CC[C@@]1(O)O[C@H]2C[C@H]3[C@@H]4CC[C@H]5C[C@@H](O[C@@H]6O[C@H](CO)[C@H](O[C@@H]7O[C@H](CO)[C@@H](O)[C@H](O[C@@H]8OC[C@@H](O)[C@H](O)[C@H]8O)[C@H]7O[C@@H]7O[C@H](CO)[C@@H](O)[C@H](O)[C@H]7O)[C@H](O)[C@H]6O)CC[C@]5(C)[C@H]4CC[C@]3(C)[C@H]2[C@@H]1C)CO[C@@H]1O[C@H](CO)[C@@H](O)[C@H](O)[C@H]1O [Uttroside B]
phosphorylation of p70S6 kinase and 4E-BP-1 [1]: found reduced | phosphorylation of mTOR ([1]; different time intervals): time dependent decrease in the phosphorylation of m-TOR at 2448 and 2481 phosphorylation sites | cleaved PARP expression in tumor sections (IHC) (HepG2 xenograft tumors; [2]): Significant upregulation in the expression of cleaved PARP | externally visible tumor at end of treatment (HepG2 xenograft tumors; [2]): no tumor was visible externally | histopathology (H&E) of tumor mass (HepG2 xenograft tumors; [2]): massive destruction of cells | tumor volume vs control (HepG2 xenograft tumors; [2]): significantly low | tissue level expression of LC3 (IHC) (HepG2 xenograft tumors; HepG2 xenograft tumor sections): very high | tissue level expression of beclin-1 (IHC) (HepG2 xenograft tumors; HepG2 xenograft tumor sections): very high | phosphorylation status of p70S6K and 4E-BP-1 in xenograft tumor tissue (HepG2 xenograft tumors; immunohistochemical staining, NOD-SCID mice): significant down-regulation in the phosphorylation status
